The results in this text go back to patent US4220755A, “Fortimicin B derivatives and process for production thereof” (Abbott Laboratories, priority 1976, dated 1980).

Molecules are shown by their SMILES. Values after ≈ are worked out from the molar mass of the structure shown.

The test system of series [1] is Proteus vulgaris KY4277 ATCC6897. In words: MIC, agar dilution method, pH 8.0. Format: cell-based. As to conditions: ATCC6897; pH 8.0; Proteus vulgaris KY4277; read-out: Minimum inhibition concentration (MIC), PV. Here is the method: (§1) Measurement was carried out according to the agar dilution method, using a medium of pH 8.0, or the Japanese Antibiotic Medicament Standard, using a medium of pH 7.2 Units are in mcg/ml.

Series [2] relates to Shigella sonnei KY4281 ATCC9290. In words: MIC, agar dilution method, pH 8.0. As to conditions: ATCC9290; pH 8.0; Shigella sonnei KY4281; read-out: Minimum inhibition concentration (MIC), SS. Format: cell-based. Here is the method:
as §1
In general terms: Agar dilution tests growth on a series of plates holding different concentrations.

A short description of series [3]: Stability in alkaline aqueous conditions. Format: physicochemical. As to conditions: pH 10, room temperature, within one hour. The procedure:
The stability of 4-N-acylfortimicin B derivatives in aqueous alkaline conditions is poor. […] Therefore, purification of these compounds under basic conditions (for example, column chromatography with Amberlite CG-50, eluting with aqueous ammonia) is not practical.
In contrast with the instability of 4-N-acylfortimicin B derivatives, 4-N-alkylfortimicin B derivatives are so stable that no decomposition occurs even in aqueous barium hydroxide solution at reflux temperature for 18 hours. Therefore, in the case of 4-N-alkylfortimicin B, any substituents can be introduced at 4-N-position of fortimicin B, even though such substituents can not be introduced as the acyl type to such position due to the aforementioned instability.

The test system of series [4] is Staphylococcus aureus KY4279 ATCC6538P. In words: MIC, agar dilution method, pH 8.0. As to conditions: pH 8.0, Staphylococcus aureus KY4279, read-out: Minimum inhibition concentration (MIC), SA. Format: cell-based. The procedure: as §1
S.A.: Staphylococcus aureus KY4279 ATCC6538P

Series [5] has as its system Eschericia coli KY4271 ATCC26. In words: MIC, agar dilution method, pH 8.0. Format: cell-based. As to conditions: Escherichia coli, ATCC26; pH 8.0; E. coli KY4271; read-out: Minimum inhibition concentration (MIC), EC. Here is the method: as §1
E.C.: Eschericia coli KY4271 ATCC26

The subject of series [6] is Bacillus subtilis KY4273. In words: MIC, agar dilution method, pH 8.0. Type of series: cell-based. The conditions noted are these: pH 8.0; Bacillus subtilis KY4273; read-out: Minimum inhibition concentration (MIC), BS. Here is the method:
as §1
B.S.: Bacillus subtilis KY4273

Series [7] concerns Klebsiella pneumoniae KY4275 ATCC10031. In words: MIC, agar dilution method, pH 8.0. The conditions noted are these: ATCC10031; pH 8.0; Klebsiella pneumoniae KY4275; read-out: Minimum inhibition concentration (MIC), KP. Format: cell-based. Here is the method: as §1
K.P.: Klebsiella pneumoniae KY4275 ATCC10031.

The subject of series [8] is Salmonella typhosa KY4278 ATCC9992. In words: MIC, agar dilution method, pH 8.0. Format: cell-based. The conditions noted are these: Salmonella enterica, pH 8, read-out: Minimum inhibition concentration (MIC), ST. Here is the method:
as §1
S.T.: Salmonella typhosa KY4278 ATCC9992

Series [9] has as its system Eschericihia coli 3100. In words: MIC, agar dilution method, pH 7.2. The conditions noted are these: Escherichia coli; pH 7.2; E. coli 3100; read-out: Minimum inhibition concentration (MIC). Type of series: cell-based, Escherichia coli. The procedure:
as §1

Series [10] deals with Escherichia coli R19 KY8348. In words: MIC, agar dilution method, pH 7.2. Format: cell-based. The conditions noted are these: R19KY8348, pH 7.2, E. coli R19 KY8348, 4**: gentamicin, producing acetyltransferase type I, read-out: Minimum inhibition concentration (MIC). Here is the method:
as §1
(§2) 4: gentamicin, producing acetyltransferase type I.

For series [11], the system named is Pseudomonas aeruginosa R4 KY8511. In words: MIC, agar dilution method, pH 7.2. Type of series: cell-based. As to conditions: R4KY8511, pH 7.2, P. aeruginosa R4 KY8511, 4**: gentamicin, producing acetyltransferase type I, read-out: Minimum inhibition concentration (MIC). The procedure:
as §1, §2

In series [12] the test system is Pseudomonas aeruginosa R9 KY8516. In words: MIC, agar dilution method, pH 7.2. Format: cell-based. The conditions noted are these: R9KY8516, pH 7.2, P. aeruginosa R9 KY8516, 3**: kanamycin, producing acetyltransferase, read-out: Minimum inhibition concentration (MIC). The procedure:
as §1
(§3) 3: kanamycin, producing acetyltransferase.

Series [13] relates to Serratia marcescens 1065. In words: MIC, agar dilution method, pH 7.2. The conditions noted are these: Serratia marcescens, 1065, pH 7.2, read-out: Minimum inhibition concentration (MIC). Type of series: cell-based. The procedure:
as §1, §3

The test system of series [14] is Escherichia coli R17 Z343. In words: MIC, agar dilution method, pH 7.2. Type of series: cell-based. The conditions noted are these: R17Z343, pH 7.2, read-out: Minimum inhibition concentration (MIC). Here is the method: as §1, §3
Series [15] deals with Providencia sp 164. In words: MIC, agar dilution method, pH 7.2. Format: cell-based. As to conditions: pH 7.2; Providencia sp 164; 7**: gentamicin, producing acetyltransferase type II; read-out: Minimum inhibition concentration (MIC). Here is the method:
as §1
7: gentamicin, producing acetyltransferase type II.

In series [16] the test system is Pseudomonas aeruginosa R5 KY8512. In words: MIC, agar dilution method, pH 7.2. As to conditions: R5KY8512, pH 7.2, P. aeruginosa R5 KY8512, 6**: neomycin, producing phosphotransferase type I and type II, read-out: Minimum inhibition concentration (MIC). Type of series: cell-based. Here is the method:
as §1
6: neomycin, producing phosphotransferase type I and type II.

Series [17] concerns Klebsiella pneumoniae 3020 Y-60. In words: MIC, agar dilution method, pH 7.2. Type of series: cell-based. The conditions noted are these: 3020Y60; pH 7.2; Klebsiella pneumoniae 3020 Y-60; 1**: gentamicin, producing adenylsynthetase; read-out: Minimum inhibition concentration (MIC). Here is the method:
as §1
(§4) **1: gentamicin, producing adenylsynthetase.

Series [18] relates to Escherichia coli 57R/W677. In words: MIC, agar dilution method, pH 7.2. Format: cell-based. As to conditions: 57R/W677, pH 7.2, read-out: Minimum inhibition concentration (MIC). The procedure: as §1, §4
For series [19], the system named is Escherichia coli R12 Z-338. In words: MIC, agar dilution method, pH 7.2. Type of series: cell-based. As to conditions: R12Z338, pH 7.2, E. coli R12 Z-338, 1**: gentamicin, producing adenylsynthetase, read-out: Minimum inhibition concentration (MIC). Here is the method: as §1, §4
Series [20] has as its system Escherichia coli 76-2. In words: MIC, agar dilution method, pH 7.2. Format: cell-based. The conditions noted are these: Escherichia coli, 762, pH 7.2, read-out: Minimum inhibition concentration (MIC). Here is the method: as §1, §4
Series [21] concerns Staphylococcus a ureus 226. In words: MIC, agar dilution method, pH 7.2. As to conditions: pH 7.2; Staphylococcus aureus 226; read-out: Minimum inhibition concentration (MIC). Format: cell-based, Staphylococcus aureus. Here is the method:
as §1

The test system of series [22] is Klebsiella pneumoniae KY4274. In words: MIC, agar dilution method, pH 7.2. Format: cell-based. The conditions noted are these: Klebsiella pneumoniae, KY4274, pH 7.2, read-out: Minimum inhibition concentration (MIC). Here is the method: as §1
Series [23] relates to Pseudomonas aeruginosa UCLA 4184. In words: MIC, agar dilution method, pH 7.2. Format: cell-based. The conditions noted are these: UCLA4184; pH 7.2; Pseudomonas aeruginosa UCLA 4184; read-out: Minimum inhibition concentration (MIC). Here is the method: as §1
The test system of series [24] is Shigella sonnei ATCC9290. In words: MIC, agar dilution method, pH 7.2. Type of series: cell-based. The conditions noted are these: read-out: Minimum inhibition concentration (MIC). The procedure: as §1
The test system of series [25] is Staphylococcus aureus Smith (A). In words: MIC, agar dilution method, pH 7.2. Format: cell-based. The conditions noted are these: pH 7.2; Staphylococcus aureus Smith (A); read-out: Minimum inhibition concentration (MIC). The procedure:
as §1

For series [26], the system named is Proteus vulgaris JJ. In words: MIC, agar dilution method, pH 7.2. As to conditions: Proteus vulgaris, pH 7.2, read-out: Minimum inhibition concentration (MIC). Type of series: cell-based. Here is the method:
as §1

The test system of series [27] is Salmonella enteritidis G-14. In words: MIC, agar dilution method, pH 7.2. Type of series: cell-based. The conditions noted are these: Salmonella enterica, ENTERITIDIS, pH 7.2, read-out: Minimum inhibition concentration (MIC). Here is the method: as §1
The subject of series [28] is Pseudomonas aeruginosa BMH# 1. In words: MIC, agar dilution method, pH 7.2. Type of series: cell-based. The conditions noted are these: pH 7.2; Pseudomonas aeruginosa BMH# 1; read-out: Minimum inhibition concentration (MIC). Here is the method:
as §1

Series [29] has as its system Escherichia coli NIHTC-2. In words: MIC, agar dilution method, pH 7.2. As to conditions: Escherichia coli, NIHTC2, pH 7.2, read-out: Minimum inhibition concentration (MIC). Format: cell-based. The procedure: as §1
Series [30] deals with Staphylococcus aureus 209-P. In words: MIC, agar dilution method, pH 7.2. The conditions noted are these: pH 7.2; Staphylococcus aureus 209-P; read-out: Minimum inhibition concentration (MIC). Format: cell-based. The procedure: as §1
Series [31] has as its system Eschericihia coli GN2411-5. In words: MIC, agar dilution method, pH 7.2. Format: cell-based. The conditions noted are these: Escherichia coli, GN2411, pH 7.2, read-out: Minimum inhibition concentration (MIC). Here is the method: as §1
Series [32] has as its system Escherichia coli R18 KY8321. In words: MIC, agar dilution method, pH 7.2. As to conditions: R18KY8321, E. coli R18 KY8321, 2**: gentamicin, producing adenylsynthetase and neomycin phosphotransferase type II, read-out: Minimum inhibition concentration (MIC). Type of series: cell-based. The procedure: as §1
2: gentamicin, producing adenylsynthetase and neomycin phosphotransferase

Series [33] deals with Escherichia coli R20 KY8349. In words: MIC, agar dilution method, pH 7.2. As to conditions: R20KY8349, pH 7.2, E. coli R20 KY8349, 5**: neomycin, producing phosphotransferase type I, read-out: Minimum inhibition concentration (MIC). Type of series: cell-based. The procedure:
as §1
5: neomycin, producing phosphotransferase type I.

With `CO[C@H]1[C@@H](O)[C@H](N)[C@@H](O[C@H]2O[C@H]([C@H](C)N)CC[C@H]2N)[C@H](O)[C@@H]1N(C)C(=O)[C@@H](O)CCN` [Compound 14, 4-N-[L-(-)-γ-amino-α-hydroxybutyryl]fortimicin B], the MIC came to 10 µg/mL (≈ 22.2 µM) in series [1]; 20 µg/mL (≈ 44.5 µM) in [2]; 0.63 µg/mL (≈ 1.4 µM) in series [4]; 0.63 µg/mL (≈ 1.4 µM) in series [5]; 5 µg/mL (≈ 11.1 µM) in series [6]; 5 µg/mL (≈ 11.1 µM) in series [7]. In addition, the MIC in series [8] worked out at 2.5 µg/mL (≈ 5.56 µM). In series [3], the “Stability in aqueous solution” value is “almost completely decomposed”.

As for `CO[C@H]1[C@@H](O)[C@H](N)[C@@H](O[C@H]2O[C@H]([C@H](C)N)CC[C@H]2N)[C@H](O)[C@@H]1N(C)CC(O)CCN` (stereo partly drawn) [Compound 29, 4-N-[(R,S)-4-amino-2-hydroxybutyl]fortimicin B], the MIC in series [9] was 12.5 µg/mL (≈ 28.7 µM); in series [10] it was greater than 100 µg/mL; in series [11], greater than 100 µg/mL; in series [1], 0.32 µg/mL (≈ 0.735 µM); in [2], 0.63 µg/mL (≈ 1.45 µM); in series [4], 0.08 µg/mL (≈ 0.184 µM). The MIC was found to be 50 µg/mL (≈ 115 µM) in series [12]; 6.25 µg/mL (≈ 14.3 µM) in [13]; 3.12 µg/mL (≈ 7.16 µM) in series [14]; 25 µg/mL (≈ 57.4 µM) in series [15]; 12.5 µg/mL (≈ 28.7 µM) in [16]; 25 µg/mL (≈ 57.4 µM) in [17]. The MIC in [18] was determined as 12.5 µg/mL (≈ 28.7 µM); in [19], 12.5 µg/mL (≈ 28.7 µM); in series [20], 3.12 µg/mL (≈ 7.16 µM); in series [5], 0.16 µg/mL (≈ 0.367 µM); in series [21], 0.78 µg/mL (≈ 1.79 µM); in [6], 0.04 µg/mL (≈ 0.0918 µM). Also, the MIC in series [22] was 6.25 µg/mL (≈ 14.3 µM); in series [23] it was 25 µg/mL (≈ 57.4 µM); in [24] it was 6.25 µg/mL (≈ 14.3 µM); in series [25] it was 0.4 µg/mL (≈ 0.918 µM); in [26], 3.12 µg/mL (≈ 7.16 µM); in series [27] it was 6.25 µg/mL (≈ 14.3 µM). Besides, the MIC in [28] came to 12.5 µg/mL (≈ 28.7 µM); in series [29], 3.12 µg/mL (≈ 7.16 µM); in [30], 0.4 µg/mL (≈ 0.918 µM); in series [31], 6.25 µg/mL (≈ 14.3 µM); in [7], 0.63 µg/mL (≈ 1.45 µM); in series [8], 0.16 µg/mL (≈ 0.367 µM). Also, the MIC in series [32] was 12.5 µg/mL (≈ 28.7 µM); in series [33] it was 3.12 µg/mL (≈ 7.16 µM).
